Measurements published in US20230134428A1, “FUSED HETEROARYL COMPOUNDS, AND METHODS THEREOF FOR TREATING DISEASES, DISORDERS, AND CONDITIONS RELATING TO ABERRANT FUNCTION OF A SODIUM CHANNEL” (Praxis Precision Medicines, Inc., priority 2016, published 2023).

biological target: T1, human NaV1.6 (hNaV1.6) (Homo sapiens, UniProt Q9UQD0); experiment: Modulation of late sodium current (INaL), PatchXpress electrophysiology; type: cell-based; details: HEK293, read-out: INaL v1.6 (1 µM, % Inhibition)
T1 construct: expressed in transfected cells; host or cells: HEK-293 (G418 selection)
Protocol: Functional characterization of exemplary compounds to modulate INaL expressed by the NaV1.6 voltage-gated sodium channel was accomplished using the PatchXpressTM high throughput electrophysiology platform (Molecular Devices, Sunnyvale, CA). HEK-293 cells expressing recombinant, human NaV1.6 (hNaV1.6)were grown in DMEM/high-glucose Dulbecco's modified, 10% FBS, 2 mM sodium pyruvate, 10 mM HEPES and 400 μg/mL G418. Cells were grown to 50% - 80% confluency prior to harvesting. Trypsinized cells were washed, allowed to recover for 1 hour and then resuspended in extracellular recording solution at a concentration of 1 × 10^6 cells/ml. The onboard liquid handling facility of the PatchXpress was used for dispensing cells and applying test compounds. Nav late currents were evoked by the application of 300 nM ATX-II. […] INaL amplitude and stability were determined by analyzing the mean current amplitude over the final 20 ms of […] pulse. […] Percent steady-state inhibition of INaL was calculated as: [([…])]*100, where INaL_compound and INaL _control represent INaL recorded in the presence or absence of compound, respectively.

T1 sequence (Q9UQD0 whole entry): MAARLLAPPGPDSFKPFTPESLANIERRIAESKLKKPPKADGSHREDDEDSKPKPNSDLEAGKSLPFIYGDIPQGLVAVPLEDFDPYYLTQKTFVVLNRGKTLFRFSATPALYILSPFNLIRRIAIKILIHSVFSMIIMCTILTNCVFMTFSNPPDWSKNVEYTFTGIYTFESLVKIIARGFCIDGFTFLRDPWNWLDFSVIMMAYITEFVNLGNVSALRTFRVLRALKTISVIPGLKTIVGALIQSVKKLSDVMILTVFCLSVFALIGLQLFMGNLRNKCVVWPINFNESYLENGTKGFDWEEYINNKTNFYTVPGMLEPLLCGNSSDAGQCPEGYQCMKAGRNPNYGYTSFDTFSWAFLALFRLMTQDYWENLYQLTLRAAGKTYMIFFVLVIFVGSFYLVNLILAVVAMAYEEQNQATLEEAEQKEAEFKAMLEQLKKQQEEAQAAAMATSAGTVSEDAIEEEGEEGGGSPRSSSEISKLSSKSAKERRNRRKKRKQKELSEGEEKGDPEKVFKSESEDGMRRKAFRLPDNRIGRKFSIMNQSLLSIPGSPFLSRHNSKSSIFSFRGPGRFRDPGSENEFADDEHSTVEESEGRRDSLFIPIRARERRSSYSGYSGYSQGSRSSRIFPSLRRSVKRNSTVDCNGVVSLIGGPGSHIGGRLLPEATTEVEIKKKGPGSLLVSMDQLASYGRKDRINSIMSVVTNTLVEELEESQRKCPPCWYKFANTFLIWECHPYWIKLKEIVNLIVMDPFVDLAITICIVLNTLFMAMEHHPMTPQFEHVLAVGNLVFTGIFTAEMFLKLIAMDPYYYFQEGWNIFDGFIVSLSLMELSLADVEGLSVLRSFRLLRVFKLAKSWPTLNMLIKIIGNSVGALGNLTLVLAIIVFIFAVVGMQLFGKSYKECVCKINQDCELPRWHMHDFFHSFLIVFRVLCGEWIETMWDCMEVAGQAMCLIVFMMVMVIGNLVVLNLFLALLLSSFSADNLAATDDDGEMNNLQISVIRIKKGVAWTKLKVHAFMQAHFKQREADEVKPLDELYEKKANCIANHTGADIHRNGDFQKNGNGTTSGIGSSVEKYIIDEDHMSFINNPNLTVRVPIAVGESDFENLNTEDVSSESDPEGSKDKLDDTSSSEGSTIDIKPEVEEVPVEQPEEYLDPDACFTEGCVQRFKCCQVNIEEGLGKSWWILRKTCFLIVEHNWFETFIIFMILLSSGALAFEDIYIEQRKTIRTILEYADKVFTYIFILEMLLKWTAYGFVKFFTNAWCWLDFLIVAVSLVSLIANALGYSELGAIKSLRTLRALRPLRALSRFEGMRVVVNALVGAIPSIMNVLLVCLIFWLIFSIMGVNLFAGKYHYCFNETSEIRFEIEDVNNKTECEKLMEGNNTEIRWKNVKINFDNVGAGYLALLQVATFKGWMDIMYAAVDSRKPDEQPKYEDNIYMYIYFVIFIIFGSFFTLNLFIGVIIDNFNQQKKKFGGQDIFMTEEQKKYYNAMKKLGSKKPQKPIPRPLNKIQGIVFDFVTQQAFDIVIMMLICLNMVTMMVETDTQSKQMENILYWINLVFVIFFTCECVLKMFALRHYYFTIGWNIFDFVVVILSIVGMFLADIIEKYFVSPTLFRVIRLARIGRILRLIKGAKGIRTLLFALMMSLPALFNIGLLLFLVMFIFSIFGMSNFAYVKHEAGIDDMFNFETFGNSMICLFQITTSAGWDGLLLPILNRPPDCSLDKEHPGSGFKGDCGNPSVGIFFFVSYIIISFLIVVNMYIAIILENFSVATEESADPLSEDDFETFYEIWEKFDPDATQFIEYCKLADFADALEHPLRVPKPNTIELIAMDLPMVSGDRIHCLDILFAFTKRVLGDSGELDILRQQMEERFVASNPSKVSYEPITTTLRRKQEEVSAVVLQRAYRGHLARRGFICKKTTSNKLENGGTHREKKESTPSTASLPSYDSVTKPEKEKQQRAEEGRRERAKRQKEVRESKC

Row | Compound | inhibition at 1 µM [%]
1 | COCc1cc(OC(F)(F)F)ccc1-c1cnc2cnc(C(F)(F)F)n2c1 [Compound 12] | 30 to 70
2 | FC(F)(F)c1ccc(-c2cnc3cnc(C(F)(F)F)n3c2)cc1 [Compound 18] | < 30
3 | N#Cc1nc(C(F)(F)F)n2cc(-c3ccc(OCC(F)(F)F)nc3)ccc12 [Compound 19] | > 70
4 | N#Cc1nc(C(F)(F)F)n2cc(-c3ccc(C4(C#N)CC4)cc3)ccc12 [Compound 20] | < 30
5 | N#Cc1nc(C(F)F)n2cc(-c3ccc(OC(F)(F)F)cc3)ccc12 [Compound 21] | 30 to 70
6 | Fc1cc(-c2cn3c(C(F)(F)F)ncc3cn2)cnc1OCC(F)(F)F [Compound 23, 6-[5-fluoro-6-(2,2,2-trifluoroethoxy)-3-pyridyl]-3-(trifluoromethyl)imidazo[1,5-a]pyrazine] | 30 to 70
7 | FC1(F)CC(c2ncc3ncc(-c4ccc(OC(F)(F)F)cc4)cn23)C1 [Compound 24] | < 30

same assay, conditions: HEK293; 1 µM compound; HEK-293 cells expressing hNaV1.6; late current evoked by 300 nM ATX-II; read-out: INaL v1.6 (1 µM, % Inhibition)

Row | Compound | inhibition at 1 µM [%]
8 | COc1cc(OC(F)(F)F)ccc1-c1ccc2cnc(C(F)(F)F)n2c1 [Compound 1] | > 70
9 | FC(F)(F)COc1ccc(-c2ccc3cnc(C(F)(F)F)n3c2)cn1 [Compound 2] | 30 to 70
10 | COC(C)(C)c1ccc(-c2ccc3cnc(C(F)(F)F)n3c2)cc1 [Compound 3] | 30 to 70
11 | N#CC1(c2ccc(-c3ccc4cnc(C(F)(F)F)n4c3)cc2)CC1 [Compound 4] | 30 to 70
12 | FC(F)(F)Oc1ccc(-c2cn3c(C(F)(F)F)ncc3cn2)cc1 [Compound 7] | 30 to 70
13 | FC(F)(F)Oc1ccc(-c2cnc3cnc(C(F)(F)F)n3c2)cc1 [Compound 8] | 30 to 70
14 | FC(F)(F)Oc1ccc(-c2ccc3cnc(C(F)(F)F)n3n2)cc1 [Compound 9] | 30 to 70
15 | FC(F)c1ncc2ncc(-c3ccc(OC(F)(F)F)cc3)cn12 [Compound 10] | < 30
16 | N#Cc1nc(C(F)(F)F)n2cc(-c3ccc(OC(F)(F)F)cc3)cnc12 [Compound 11] | < 30
17 | N#CC1(c2ccc(-c3cnc4cnc(C(F)(F)F)n4c3)cc2)CC1 [Compound 13] | < 30
18 | Cc1nc(C(F)(F)F)n2cc(-c3ccc(OC(F)(F)F)cc3)cnc12 [Compound 14] | 30 to 70
19 | COCc1cc(OC(F)(F)F)ccc1-c1cn2c(C(F)(F)F)ncc2cn1 [Compound 15] | > 70
20 | COCc1cc(OC(F)(F)F)ccc1-c1ccc2c(C#N)nc(C(F)(F)F)n2c1 [Compound 16] | > 70
21 | COc1cc(C2(C#N)CC2)ccc1-c1cnc2cnc(C(F)(F)F)n2c1 [Compound 17] | < 30
22 | N#CC1(c2ccc(-c3cn4c(C(F)(F)F)ncc4cn3)cc2)CC1 [Compound 22] | 30 to 70
23 | N#Cc1nc(C(F)(F)F)n2nc(-c3ccc(OC(F)(F)F)cc3)ccc12 [Compound 25] | < 30
24 | FC(F)(F)Oc1ccc(-c2ccc3cnc(C4CC4(F)F)n3c2)cc1 (stereo not shown) [Compound 26] | 30 to 70
25 | N#Cc1nc(C(F)(F)F)n2cc(-c3ccc(OC(F)(F)F)cc3)ncc12 [Compound 27] | > 70
26 | COCc1cc(OC(F)(F)F)ccc1-c1cn2c(C(F)(F)F)nc(C#N)c2cn1 [Compound 28] | > 70
27 | N#Cc1nc(C(F)(F)F)n2cc(-c3ccc(C(F)(F)F)cc3)ncc12 [Compound 29] | > 70
28 | N#Cc1nc(C2CC2(F)F)n2cc(-c3ccc(OC(F)(F)F)cc3)ccc12 (stereo not shown) [Compound 30] | > 70
29 | N#Cc1nc(C(F)(F)F)n2cc(-c3cnc(OCC(F)(F)F)c(F)c3)ncc12 [Compound 31, 6-[5-fluoro-6-(2,2,2-trifluoroethoxy)-3-pyridyl]-3-(trifluoromethyl)imidazo[1,5-a]pyrazine-1-carbonitrile] | 30 to 70
30 | Fc1cc(-c2cnc3cnc(C(F)(F)F)n3c2)cnc1OCC(F)(F)F [Compound 32, 3-[5-fluoro-6-(2,2,2-trifluoroethoxy)-3-pyridyl]-6-(trifluoromethyl)imidazo[1,5-a]pyrimidine] | 30 to 70
31 | N#Cc1nc(C(F)(F)F)n2cc(-c3cnc(OCC(F)(F)F)c(F)c3)ccc12 [Compound 33, 6-[5-fluoro-6-(2,2,2-trifluoroethoxy)-3-pyridyl]-3-(trifluoromethyl)imidazo[1,5-a]pyridine-1-carbonitrile] | > 70
